Bridge positions count the residues as written; N and C are the ends. Square brackets hold non-standard residues; d marks the D form. Peptide text beside a SMILES is read from it. Phe(4-NO2) = N[C@@H](Cc1ccc([N+](=O)[O-])cc1)C(=O)O; Phe(4-guanidino) = N=C(N)Nc1ccc(C[C@H](N)C(=O)O)cc1; Phe(4-NH2) = Nc1ccc(C[C@H](N)C(=O)O)cc1; Phe(4-F) = N[C@@H](Cc1ccc(F)cc1)C(=O)O; Phe(4-Me) = Cc1ccc(C[C@H](N)C(=O)O)cc1; 4Pal = N[C@@H](Cc1ccncc1)C(=O)O
Legend:
Cathepsin G = biological target: T1, Cathepsin G (Homo sapiens, UniProt P08311); test: Inhibition of cathepsin G
T1 sequence (P08311 whole entry): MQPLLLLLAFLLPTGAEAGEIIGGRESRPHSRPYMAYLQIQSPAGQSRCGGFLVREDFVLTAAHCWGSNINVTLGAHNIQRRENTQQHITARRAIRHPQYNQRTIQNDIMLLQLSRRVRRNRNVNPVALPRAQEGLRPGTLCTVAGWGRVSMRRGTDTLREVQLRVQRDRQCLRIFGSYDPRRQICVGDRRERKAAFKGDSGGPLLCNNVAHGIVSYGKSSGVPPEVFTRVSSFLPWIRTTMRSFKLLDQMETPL

[1] = biological target: T2, Cathepsin G (Homo sapiens) (UniProt P08311); test: Inhibition of cathepsin G assessed as association equilibrium constant relative to [Phe5]SFTI-1
T2 sequence (whole entry): T1 sequence (P08311 whole entry)

[2] = biological target: Chymotrypsinogen A (Bos taurus) (UniProt P00766); test: Inhibition of bovine alpha-chymotrypsin assessed as association equilibrium constant
[3] = biological target: T2, Cathepsin G (Homo sapiens); test: Inhibition of cathepsin G assessed as association equilibrium constant
[4] = biological target: Chymotrypsinogen A (Bos taurus) (UniProt P00766); test: Inhibition of bovine alpha-chymotrypsin assessed as association equilibrium constant relative to [Phe5]SFTI-1
Serum = test: Stability in human serum at 2 mg/mL up to 24 hrs; format: ADME, cell-free

With `CC[C@H](C)[C@@H]1NC(=O)[C@@H]2CCCN2C(=O)[C@@H]2CCCN2C(=O)[C@H]([C@@H](C)CC)NC(=O)[C@H](CO)NC(=O)[C@H](CCCCN)NC(=O)[C@H]([C@@H](C)O)NC(=O)[C@@H]2CSSC[C@H](NC1=O)C(=O)N[C@@H](Cc1ccccc1)C(=O)N1CCC[C@H]1C(=O)N[C@@H](CC(=O)O)C(=O)NCC(=O)N[C@@H](CCCNC(=N)N)C(=O)N2` the Ki (Cathepsin G) was 0.15 nM, the Ratio [1] was 1.54 and the Ka [2] was 5.2 ×10⁶ /M. The Ka [3] was 5.7 ×10⁶ /M.
With `CC[C@H](C)[C@@H]1NC(=O)[C@@H]2CCCN2C(=O)[C@@H]2CCCN2C(=O)[C@H]([C@@H](C)CC)NC(=O)[C@H](CO)NC(=O)[C@H](CCCCN)NC(=O)[C@H]([C@@H](C)O)NC(=O)[C@@H](NC(=O)[C@H](CCCNC(=N)N)NC(=O)CN)CSSC[C@@H](C(=O)N[C@@H](Cc2ccccc2)C(=O)N2CCC[C@H]2C(=O)N[C@@H](CC(=O)O)C(=O)O)NC1=O` the Ka [2] was 5 ×10⁶ /M.
Compound `CC[C@H](C)[C@@H]1NC(=O)[C@@H]2CCCN2C(=O)[C@@H]2CCCN2C(=O)[C@H]([C@@H](C)CC)NC(=O)[C@H](CO)NC(=O)[C@H](Cc2ccccc2)NC(=O)[C@H]([C@@H](C)O)NC(=O)[C@@H](NC(=O)[C@H](CCCNC(=N)N)NC(=O)CN)CSSC[C@@H](C(=O)N[C@@H](Cc2ccccc2)C(=O)N2CCC[C@H]2C(=O)N[C@@H](CC(=O)O)C(=O)O)NC1=O` (H-GRCTFSIPPICFPD-OH; disulfide 3-11) has a Ka [2] of 2 ×10⁹ /M and a Ka [3] of 3.7 ×10⁶ /M.
`CC[C@H](C)[C@@H]1NC(=O)[C@@H]2CCCN2C(=O)[C@@H]2CCCN2C(=O)[C@H]([C@@H](C)CC)NC(=O)[C@H](CO)NC(=O)[C@H](Cc2ccc(O)cc2)NC(=O)[C@H]([C@@H](C)O)NC(=O)[C@@H](NC(=O)[C@H](CCCNC(=N)N)NC(=O)CN)CSSC[C@@H](C(=O)N[C@@H](Cc2ccccc2)C(=O)N2CCC[C@H]2C(=O)N[C@@H](CC(=O)O)C(=O)O)NC1=O` (H-GRCTYSIPPICFPD-OH; disulfide 3-11) gave a Ratio [4] of 9.5, a Ka [2] of 1.9 ×10¹⁰ /M and a Ka [3] of under 1 ×10⁵ /M.
In the case of `CC[C@H](C)[C@@H]1NC(=O)[C@@H]2CCCN2C(=O)[C@@H]2CCCN2C(=O)[C@H]([C@@H](C)CC)NC(=O)[C@H](CO)NC(=O)[C@H](Cc2ccncc2)NC(=O)[C@H]([C@@H](C)O)NC(=O)[C@@H](NC(=O)[C@H](CCCNC(=N)N)NC(=O)CN)CSSC[C@@H](C(=O)N[C@@H](Cc2ccccc2)C(=O)N2CCC[C@H]2C(=O)N[C@@H](CC(=O)O)C(=O)O)NC1=O` (H-GRCT[4Pal]SIPPICFPD-OH; disulfide 3-11), the Ratio [4] is reported as 5.5, the Ka [2] is reported as 1.1 ×10¹⁰ /M and the Ka [3] is reported as under 1 ×10⁵ /M.
`CC[C@H](C)[C@@H]1NC(=O)[C@@H]2CCCN2C(=O)[C@@H]2CCCN2C(=O)[C@H]([C@@H](C)CC)NC(=O)[C@H](CO)NC(=O)[C@H](Cc2ccc(F)cc2)NC(=O)[C@H]([C@@H](C)O)NC(=O)[C@@H](NC(=O)[C@H](CCCNC(=N)N)NC(=O)CN)CSSC[C@@H](C(=O)N[C@@H](Cc2ccccc2)C(=O)N2CCC[C@H]2C(=O)N[C@@H](CC(=O)O)C(=O)O)NC1=O` (H-GRCT[Phe(4-F)]SIPPICFPD-OH; disulfide 3-11) showed a Ratio [4] of 15, a Ratio [1] of 1.02 and a Ka [2] of 3 ×10¹⁰ /M. It also gave a Ka [3] of 3.8 ×10⁶ /M.
For `CC[C@H](C)[C@@H]1NC(=O)[C@@H]2CCCN2C(=O)[C@@H]2CCCN2C(=O)[C@H]([C@@H](C)CC)NC(=O)[C@H](CO)NC(=O)[C@H](Cc2ccc(C)cc2)NC(=O)[C@H]([C@@H](C)O)NC(=O)[C@@H](NC(=O)[C@H](CCCNC(=N)N)NC(=O)CN)CSSC[C@@H](C(=O)N[C@@H](Cc2ccccc2)C(=O)N2CCC[C@H]2C(=O)N[C@@H](CC(=O)O)C(=O)O)NC1=O` (H-GRCT[Phe(4-Me)]SIPPICFPD-OH; disulfide 3-11), the Ratio [4] was 12.5, the Ratio [1] was 0.76 and the Ka [2] was 2.5 ×10¹⁰ /M. The Ka [3] was 2.8 ×10⁶ /M.
`CC[C@H](C)[C@@H]1NC(=O)[C@@H]2CCCN2C(=O)[C@@H]2CCCN2C(=O)[C@H]([C@@H](C)CC)NC(=O)[C@H](CO)NC(=O)[C@H](Cc2ccc(N)cc2)NC(=O)[C@H]([C@@H](C)O)NC(=O)[C@@H](NC(=O)[C@H](CCCNC(=N)N)NC(=O)CN)CSSC[C@@H](C(=O)N[C@@H](Cc2ccccc2)C(=O)N2CCC[C@H]2C(=O)N[C@@H](CC(=O)O)C(=O)O)NC1=O` (H-GRCT[Phe(4-NH2)]SIPPICFPD-OH; disulfide 3-11) gave a Ratio [4] of 9.5, a Ratio [1] of 0.97 and a Ka [2] of 1.9 ×10¹⁰ /M. It also gave a Ka [3] of 3.6 ×10⁶ /M.
`CC[C@H](C)[C@@H]1NC(=O)[C@@H]2CCCN2C(=O)[C@@H]2CCCN2C(=O)[C@H]([C@@H](C)CC)NC(=O)[C@H](CO)NC(=O)[C@H](Cc2ccc([N+](=O)[O-])cc2)NC(=O)[C@H]([C@@H](C)O)NC(=O)[C@@H](NC(=O)[C@H](CCCNC(=N)N)NC(=O)CN)CSSC[C@@H](C(=O)N[C@@H](Cc2ccccc2)C(=O)N2CCC[C@H]2C(=O)N[C@@H](CC(=O)O)C(=O)O)NC1=O` (H-GRCT[Phe(4-NO2)]SIPPICFPD-OH; disulfide 3-11) gave a Ratio [4] of 13, a Ka [2] of 2.6 ×10¹⁰ /M and a Ka [3] of under 1 ×10⁵ /M.
`CC[C@H](C)[C@@H]1NC(=O)[C@@H]2CCCN2C(=O)[C@@H]2CCCN2C(=O)[C@H]([C@@H](C)CC)NC(=O)[C@H](CO)NC(=O)[C@H](Cc2ccc(NC(=N)N)cc2)NC(=O)[C@H]([C@@H](C)O)NC(=O)[C@@H](NC(=O)[C@H](CCCNC(=N)N)NC(=O)CN)CSSC[C@@H](C(=O)N[C@@H](Cc2ccccc2)C(=O)N2CCC[C@H]2C(=O)N[C@@H](CC(=O)O)C(=O)O)NC1=O` (H-GRCT[Phe(4-guanidino)]SIPPICFPD-OH; disulfide 3-11) was tested, and the Ratio [4] was 0.09, the Ratio [1] was 2.19 and the Stability (Serum) was “Stable”. It also gave a Ka [2] of 1.8 ×10⁸ /M and a Ka [3] of 8.1 ×10⁷ /M.
